In patent US8377943B2, “2,4-diaminopyrimidine derivates as PTK2-inhibitors for the treatment of abnormal cell growth” (Boehringer Ingelheim International GmbH, priority 2008, dated 2013):

Columns and labels:
PTK2 = target: T1, PTK2 (Homo sapiens, UniProt Q05397); experiment: PTK2 Enzyme Test (DELFIA assay, poly-Glu-Tyr substrate); type: biochemical; details: active PTK2 enzyme, 50 μM ATP in ATP Mix, 1 h pre-incubation
T1 construct: purchased Invitrogen PV3832
How it was run: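 Active PTK2 (0.01 μg/well) pre-incubated 1 h at RT with compound, then reacted 1 h with 50 μM ATP (in ATP mix) and poly(Glu,Tyr) 4:1 substrate, 2% DMSO final, pH 7.5. Biotinylated product captured on streptavidin, detected by Eu-PY20 time-resolved fluorescence; IC50 by sigmoidal fit, variable Hill slope.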

[1] = target: T2, PTK2-phosphorylation at tyrosine 397 (pY397) (Homo sapiens, UniProt Q05397); experiment: Phospho-PTK2 (pY397) Assay in PC-3 cells; type: cell-based; details: PC-3 prostate carcinoma cells, 2 h incubation; read-out: PC3pPTK2 Y397 EC50
T2 construct: endogenous in cells; host or cells: PC-3 (ATCC CRL-1435)
T2 sequence (Q05397 whole entry): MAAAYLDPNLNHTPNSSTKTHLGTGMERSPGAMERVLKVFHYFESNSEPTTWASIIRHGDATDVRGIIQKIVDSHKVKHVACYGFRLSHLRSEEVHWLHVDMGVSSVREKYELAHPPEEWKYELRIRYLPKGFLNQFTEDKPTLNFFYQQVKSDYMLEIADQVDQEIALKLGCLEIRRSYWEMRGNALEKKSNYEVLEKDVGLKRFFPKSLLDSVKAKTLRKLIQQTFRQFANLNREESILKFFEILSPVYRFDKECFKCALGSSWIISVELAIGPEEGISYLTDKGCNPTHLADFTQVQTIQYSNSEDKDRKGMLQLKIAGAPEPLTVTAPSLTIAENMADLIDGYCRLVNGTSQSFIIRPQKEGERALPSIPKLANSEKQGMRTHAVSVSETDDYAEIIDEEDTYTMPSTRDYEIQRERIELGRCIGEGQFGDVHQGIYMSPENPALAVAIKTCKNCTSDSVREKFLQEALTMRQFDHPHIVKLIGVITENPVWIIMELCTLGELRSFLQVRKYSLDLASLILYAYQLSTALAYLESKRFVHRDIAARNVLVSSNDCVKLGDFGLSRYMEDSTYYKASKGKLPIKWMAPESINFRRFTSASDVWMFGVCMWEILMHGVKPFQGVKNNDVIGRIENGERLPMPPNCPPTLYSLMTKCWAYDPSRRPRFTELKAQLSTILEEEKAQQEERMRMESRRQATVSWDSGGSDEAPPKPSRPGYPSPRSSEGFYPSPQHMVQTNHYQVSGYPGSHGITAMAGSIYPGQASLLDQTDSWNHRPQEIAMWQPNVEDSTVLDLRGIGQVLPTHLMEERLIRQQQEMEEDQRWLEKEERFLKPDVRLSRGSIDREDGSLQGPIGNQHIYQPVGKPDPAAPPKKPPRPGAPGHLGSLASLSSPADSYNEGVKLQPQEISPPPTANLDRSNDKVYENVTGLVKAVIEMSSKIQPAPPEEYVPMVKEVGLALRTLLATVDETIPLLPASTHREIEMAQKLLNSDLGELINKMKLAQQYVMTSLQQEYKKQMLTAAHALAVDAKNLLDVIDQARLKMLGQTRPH
How it was run: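 PC-3 cells (2×10^4/well, F12K + 10% FCS) exposed to compound (about 0.8 nM–50 μM, 1% DMSO final) for 2 h at 37 °C. Then formaldehyde-fixed and immunostained with anti-pY397 PTK2 (total PTK2 control) and an HRP secondary. EC50 from sigmoidal fit with variable Hill slope.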

T1 sequence (Q05397 whole entry): as above

IC50 (PTK2) | EC50 [1] | SMILES
1 nM | 2 nM | COc1cc(C(=O)NC2CCN(C)CC2)c(F)cc1Nc1ncc(C(F)(F)F)c(NCc2ccc(Cl)cc2N(C)S(C)(=O)=O)n1 [Example 90]
3 nM | 2 nM | Cc1ccc(CNc2nc(Nc3ccc(C(=O)N[C@H]4CC[C@H](N5CCN(CC6CC6)CC5)CC4)cc3F)ncc2C(F)(F)F)c(N(C)S(C)(=O)=O)c1 [Example 91]
1 nM | 2 nM | Cc1ccc(CNc2nc(Nc3ccc(C(=O)N[C@H]4CC[C@H](N5CCOCC5)CC4)cc3F)ncc2C(F)(F)F)c(N(C)S(C)(=O)=O)c1 [Example 92]
5 nM | 2 nM | COc1cc(C(=O)NC2CCN(C3COC3)CC2)c(F)cc1Nc1ncc(C(F)(F)F)c(NCc2ccc(C)cc2N(C)S(C)(=O)=O)n1 [Example 93]
2 nM | 2 nM | COc1cc(C(=O)NC2CCN(C3CCOCC3)CC2)ccc1Nc1ncc(C(F)(F)F)c(NCc2ccc(Cl)cc2N(C)S(C)(=O)=O)n1 [Example 94]
3 nM | 2 nM | COc1cc(C(=O)N[C@H]2CC[C@H](N3CCN(CC4CC4)CC3)CC2)ccc1Nc1ncc(C(F)(F)F)c(NCc2ccc(C)cc2N(C)S(C)(=O)=O)n1 [Example 95]
3 nM | 2 nM | COc1cc(C(=O)NC2CC(N3CCN(CC4CC4)CC3)C2)ccc1Nc1ncc(C(F)(F)F)c(NCc2ccc(C)cc2N(C)S(C)(=O)=O)n1 (stereo not drawn) [Example 97]
3 nM | 2 nM | COc1cc(N2CCN(C3COC3)CC2)ccc1Nc1ncc(C(F)(F)F)c(NCc2ccc(F)cc2N(C)S(C)(=O)=O)n1 [Example 98]
1 nM | 2 nM | COc1cc(N2CCN(C)CC2)ccc1Nc1ncc(C(F)(F)F)c(NCc2ccc(F)cc2N(C)S(C)(=O)=O)n1 [Example 99]
1 nM | 2 nM | COc1cc(C(=O)NC2CCN(C)CC2)c(C)cc1Nc1ncc(C(F)(F)F)c(NCc2ccc(C)cc2N(C)S(C)(=O)=O)n1 [Example 100]
2 nM | 2 nM | CCc1cc(C(=O)NC2CCN(CC)CC2)ccc1Nc1ncc(C(F)(F)F)c(NCc2ccc(C)cc2N(C)S(C)(=O)=O)n1 [Example 101]
2 nM | 2 nM | COc1cc(C(=O)N[C@@H]2CCCN(C)C2)ccc1Nc1ncc(C(F)(F)F)c(NCc2ccc(C)cc2N(C)S(C)(=O)=O)n1 [Example 102]
0.8 nM | 2 nM | COc1cc(Nc2ncc(C(F)(F)F)c(NCc3ccc(C)cc3N(C)S(C)(=O)=O)n2)ccc1NC(C)=O [Example 103]
2 nM | 2 nM | CC(=O)Nc1ccc(Nc2ncc(C(F)(F)F)c(NCc3ccc(C)cc3N(C)S(C)(=O)=O)n2)cc1Cl [Example 104]
2 nM | 2 nM | COc1ccc(CNc2nc(Nc3ccc(NC(C)=O)c(Cl)c3)ncc2C(F)(F)F)c(N(C)S(C)(=O)=O)c1 [Example 105]
4 nM | 2 nM | COc1cc(C(=O)N[C@@H]2CCN(C)C[C@@H]2F)ccc1Nc1ncc(C(F)(F)F)c(NCc2ccc(C)cc2N(C)S(C)(=O)=O)n1 [Example 106]
4 nM | 2 nM | COc1cc(C(=O)NC2CCC(N3CCN(CC4CC4)CC3)CC2)c(C)cc1Nc1ncc(C(F)(F)F)c(NCc2ccc(C)cc2N(C)S(C)(=O)=O)n1 (stereo not drawn) [Example 107]
2 nM | 2 nM | COc1cc(C(=O)N(C)C2CCN(C)CC2)ccc1Nc1ncc(C(F)(F)F)c(NCc2ccc(C)cc2N(C)S(C)(=O)=O)n1 [Example 108]
2 nM | 2 nM | COc1cc(CNC2CCCCC2)ccc1Nc1ncc(C(F)(F)F)c(NCc2ccc(C)cc2N(C)S(C)(=O)=O)n1 [Example 109]
1 nM | 3 nM | COc1cc(C(=O)NC2CCN(C)CC2)ccc1Nc1ncc(C(F)(F)F)c(NCc2ccc(Cl)cc2N(C)S(C)(=O)=O)n1 [Example 111]
2 nM | 3 nM | COc1cc(N2CCN(C3CCN(C)CC3)CC2)ccc1Nc1ncc(C(F)(F)F)c(NCc2ccc(C)cc2N(C)S(C)(=O)=O)n1 [Example 112]
